What was measured:
[1] = Selectivity index, ratio of IC50 for inhibition of wild type EGFR (unknown origin) to IC50 for inhibition of EGFR L858R/T790M mutant (unknown origin)
[2] = biological target: Epidermal growth factor receptor (Homo sapiens, UniProt P00533, L858R/T790M); test: Inhibition of EGFR L858R/T790M mutant (unknown origin) by mobility shift assay
[3] = biological target: Epidermal growth factor receptor (Homo sapiens, UniProt P00533); test: Inhibition of wild type EGFR (unknown origin) by mobility shift assay
Chain of Epidermal growth factor receptor (Homo sapiens, UniProt P00533) (P00533 whole entry): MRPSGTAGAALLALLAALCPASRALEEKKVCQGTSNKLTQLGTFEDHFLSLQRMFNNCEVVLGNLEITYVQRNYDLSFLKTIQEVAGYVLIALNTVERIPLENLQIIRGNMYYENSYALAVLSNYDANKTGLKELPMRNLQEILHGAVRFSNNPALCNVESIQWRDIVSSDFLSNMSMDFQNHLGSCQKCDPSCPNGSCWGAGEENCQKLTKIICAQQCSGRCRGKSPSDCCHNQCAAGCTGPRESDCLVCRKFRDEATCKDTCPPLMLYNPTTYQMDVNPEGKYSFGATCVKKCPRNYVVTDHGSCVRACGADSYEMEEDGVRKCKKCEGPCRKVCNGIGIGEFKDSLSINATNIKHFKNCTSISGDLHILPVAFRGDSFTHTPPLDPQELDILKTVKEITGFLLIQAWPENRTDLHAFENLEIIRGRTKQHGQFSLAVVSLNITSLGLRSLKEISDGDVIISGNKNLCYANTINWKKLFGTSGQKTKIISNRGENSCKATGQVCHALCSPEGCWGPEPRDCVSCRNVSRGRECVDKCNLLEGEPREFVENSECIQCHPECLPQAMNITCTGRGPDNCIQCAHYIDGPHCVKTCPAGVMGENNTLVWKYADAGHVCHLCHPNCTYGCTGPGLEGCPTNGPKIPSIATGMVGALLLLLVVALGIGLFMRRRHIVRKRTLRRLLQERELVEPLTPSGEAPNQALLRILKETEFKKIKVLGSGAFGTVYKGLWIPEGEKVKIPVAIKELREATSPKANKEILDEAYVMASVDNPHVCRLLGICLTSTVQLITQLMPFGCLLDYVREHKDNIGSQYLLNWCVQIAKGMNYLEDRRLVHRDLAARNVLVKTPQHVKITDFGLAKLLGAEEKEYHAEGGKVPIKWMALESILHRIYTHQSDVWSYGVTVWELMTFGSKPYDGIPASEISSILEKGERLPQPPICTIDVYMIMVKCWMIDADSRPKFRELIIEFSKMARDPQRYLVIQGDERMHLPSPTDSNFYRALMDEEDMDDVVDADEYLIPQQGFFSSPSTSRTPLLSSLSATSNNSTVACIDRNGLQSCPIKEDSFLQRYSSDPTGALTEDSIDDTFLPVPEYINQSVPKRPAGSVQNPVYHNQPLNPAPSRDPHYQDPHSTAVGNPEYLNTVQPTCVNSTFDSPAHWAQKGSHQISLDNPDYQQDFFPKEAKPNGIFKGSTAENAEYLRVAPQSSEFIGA

Chain of Epidermal growth factor receptor (Homo sapiens, UniProt P00533, L858R/T790M) (P00533 25-1210 T790M/L858R limits assumed): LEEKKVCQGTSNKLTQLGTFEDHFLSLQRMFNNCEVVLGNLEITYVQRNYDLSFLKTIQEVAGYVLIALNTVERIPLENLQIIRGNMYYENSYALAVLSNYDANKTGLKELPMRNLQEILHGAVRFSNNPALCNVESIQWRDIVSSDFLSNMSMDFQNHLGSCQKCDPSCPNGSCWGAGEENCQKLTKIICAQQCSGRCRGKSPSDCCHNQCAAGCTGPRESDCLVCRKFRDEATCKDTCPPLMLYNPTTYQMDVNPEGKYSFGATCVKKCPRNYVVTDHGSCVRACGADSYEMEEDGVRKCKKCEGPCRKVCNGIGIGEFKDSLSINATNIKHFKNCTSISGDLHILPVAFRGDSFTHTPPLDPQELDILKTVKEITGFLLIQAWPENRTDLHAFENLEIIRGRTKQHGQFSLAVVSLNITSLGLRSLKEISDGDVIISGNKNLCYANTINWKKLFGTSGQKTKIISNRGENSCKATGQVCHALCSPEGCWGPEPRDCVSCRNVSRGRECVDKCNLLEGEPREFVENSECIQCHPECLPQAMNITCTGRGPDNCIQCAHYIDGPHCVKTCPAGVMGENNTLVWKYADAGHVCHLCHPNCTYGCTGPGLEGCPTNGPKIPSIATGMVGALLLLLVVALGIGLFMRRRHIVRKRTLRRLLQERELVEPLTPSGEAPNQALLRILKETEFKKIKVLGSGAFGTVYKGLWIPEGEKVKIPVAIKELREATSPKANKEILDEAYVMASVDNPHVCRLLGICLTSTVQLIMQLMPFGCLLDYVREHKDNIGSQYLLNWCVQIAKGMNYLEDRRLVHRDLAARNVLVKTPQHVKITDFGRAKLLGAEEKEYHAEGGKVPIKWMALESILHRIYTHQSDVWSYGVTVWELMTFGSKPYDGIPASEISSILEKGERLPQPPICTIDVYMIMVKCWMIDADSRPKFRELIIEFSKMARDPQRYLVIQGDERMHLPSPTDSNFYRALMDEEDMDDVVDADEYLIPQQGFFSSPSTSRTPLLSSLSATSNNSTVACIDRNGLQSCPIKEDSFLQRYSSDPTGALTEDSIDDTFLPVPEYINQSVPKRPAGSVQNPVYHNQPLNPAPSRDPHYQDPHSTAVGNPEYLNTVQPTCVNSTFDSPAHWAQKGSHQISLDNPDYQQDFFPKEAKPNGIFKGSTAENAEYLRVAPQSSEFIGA

SMILES	Ratio IC50 [1]	IC50 [2] [nM]	IC50 [3] [nM]
CC(=O)c1ccc(Nc2nccc(-c3cn(C)c4ccccc34)n2)cc1OCCOCCn1ccnc1[N+](=O)[O-]	28.4	262	7440
Cn1cc(-c2ccnc(Nc3ccc(OCCOCCn4ccnc4[N+](=O)[O-])c(F)c3)n2)c2ccccc21	> 13.8	722	> 10000
Cn1cc(-c2ccnc(Nc3ccc(OCCCCn4ccnc4[N+](=O)[O-])cc3)n2)c2ccccc21		1180	
Cn1cc(-c2ccnc(Nc3cccc(OCCCCn4cnc([N+](=O)[O-])c4)c3)n2)c2ccccc21	8.08	233	1880
Cn1cc(-c2ccnc(Nc3cccc(OCCOCCn4ccnc4[N+](=O)[O-])c3)n2)c2ccccc21	9.05	442	4000
Cn1cc(-c2ccnc(Nc3ccc(OCCOCCn4ccnc4[N+](=O)[O-])cc3)n2)c2ccccc21	18.3	512	9370
Cn1cc(-c2ccnc(Nc3cccc(COCCOCCn4ccnc4[N+](=O)[O-])c3)n2)c2ccccc21		4030	
Cn1cc(-c2ccnc(Nc3cccc(OCCCCn4ccnc4[N+](=O)[O-])c3)n2)c2ccccc21	15.7	227	3570
